Measurements as given in US20260132164A1, “PNU ANTHRACYCLINE DERIVATIVES AND METHODS OF USE THEREOF” (Merck Sharp & Dohme LLC, priority 2022, published 2026).

system: BxPC3; test: CellTiter-Glo 2.0 Cytotoxicity Assay; format: cell-based; conditions: CellTiter-Glo 2.0 luminescence; compound added day 1, read on day 4 or 5; 3000 cells/well

SMILES | EC50 [nM]
COc1cccc2c1C(=O)c1c(O)c3c(c(O)c1C2=O)C[C@@](O)(C(=O)NC1CNCC1(F)F)C[C@@H]3O[C@H]1C[C@H]2[C@H](O[C@@H]3[C@@H](OC)OCCN32)[C@H](C)O1 (stereo partly drawn) [Compound 16] | 24
COc1cccc2c1C(=O)c1c(O)c3c(c(O)c1C2=O)C[C@@](O)(C(=O)NCCN(C)C(=O)C1CCNC1)C[C@@H]3O[C@H]1C[C@H]2[C@H](O[C@@H]3[C@@H](OC)OCCN32)[C@H](C)O1 (single isomer, unassigned) [Compound 50] | 20
COc1cccc2c1C(=O)c1c(O)c3c(c(O)c1C2=O)C[C@@](O)(C(=O)NC1CCC1N)C[C@@H]3O[C@H]1C[C@H]2[C@H](O[C@@H]3[C@@H](OC)OCCN32)[C@H](C)O1 (stereo partly drawn) [Compound 19] | 4
COc1cccc2c1C(=O)c1c(O)c3c(c(O)c1C2=O)C[C@@](O)(C(=O)NCC1CC(=O)NC1=O)C[C@@H]3O[C@H]1C[C@H]2[C@H](O[C@@H]3[C@@H](OC)OCCN32)[C@H](C)O1 (stereo partly drawn) [Compound 87] | 0.12

same assay, conditions: Homo sapiens, BXPC-3, CellTiter-Glo 2.0 luminescence; compound added day 1, read on day 4 or 5; 3000 cells/well

SMILES | EC50 [nM]
COc1cccc2c1C(=O)c1c(O)c3c(c(O)c1C2=O)C[C@@](O)(C(=O)NCC1CNC1)C[C@@H]3O[C@H]1C[C@H]2[C@H](O[C@@H]3[C@@H](OC)OCCN32)[C@H](C)O1 [Compound 47] | 9.4
COc1cccc2c1C(=O)c1c(O)c3c(c(O)c1C2=O)C[C@@](O)(C(=O)N[C@H]1CC[C@@H](N)C1)C[C@@H]3O[C@H]1C[C@H]2[C@H](O[C@@H]3[C@@H](OC)OCCN32)[C@H](C)O1 [Compound 34] | 19
COc1cccc2c1C(=O)c1c(O)c3c(c(O)c1C2=O)C[C@@](O)(C(=O)N1CC(CN)C1)C[C@@H]3O[C@H]1C[C@H]2[C@H](O[C@@H]3[C@@H](OC)OCCN32)[C@H](C)O1 [Compound 2] | 22
COc1cccc2c1C(=O)c1c(O)c3c(c(O)c1C2=O)C[C@@](O)(C(=O)N[C@@H]1CC[C@H](N)C1)C[C@@H]3O[C@H]1C[C@H]2[C@H](O[C@@H]3[C@@H](OC)OCCN32)[C@H](C)O1 [Compound 33] | 9.2
COc1cccc2c1C(=O)c1c(O)c3c(c(O)c1C2=O)C[C@@](O)(C(=O)N(C)CCN)C[C@@H]3O[C@H]1C[C@H]2[C@H](O[C@@H]3[C@@H](OC)OCCN32)[C@H](C)O1 [Compound 13] | 5.4
COc1cccc2c1C(=O)c1c(O)c3c(c(O)c1C2=O)C[C@@](O)(C(=O)NCc1ccccc1N)C[C@@H]3O[C@H]1C[C@H]2[C@H](O[C@@H]3[C@@H](OC)OCCN32)[C@H](C)O1 [Compound 79] | 0.15
COc1cccc2c1C(=O)c1c(O)c3c(c(O)c1C2=O)C[C@@](O)(C(=O)N1CC(N)C1)C[C@@H]3O[C@H]1C[C@H]2[C@H](O[C@@H]3[C@@H](OC)OCCN32)[C@H](C)O1 [Compound 24] | 8.3
COc1cccc2c1C(=O)c1c(O)c3c(c(O)c1C2=O)C[C@@](O)(C(=O)N1CC2(CCNC2)C1)C[C@@H]3O[C@H]1C[C@H]2[C@H](O[C@@H]3[C@@H](OC)OCCN32)[C@H](C)O1 [Compound 28] | 478
COc1cccc2c1C(=O)c1c(O)c3c(c(O)c1C2=O)C[C@@](O)(C(=O)N1CCNCC1)C[C@@H]3O[C@H]1C[C@H]2[C@H](O[C@@H]3[C@@H](OC)OCCN32)[C@H](C)O1 [Compound 68] | 8.1
COc1cccc2c1C(=O)c1c(O)c3c(c(O)c1C2=O)C[C@@](O)(C(=O)NCC(C)(C)CN)C[C@@H]3O[C@H]1C[C@H]2[C@H](O[C@@H]3[C@@H](OC)OCCN32)[C@H](C)O1 [Compound 56] | 1.4
COc1cccc2c1C(=O)c1c(O)c3c(c(O)c1C2=O)C[C@@](O)(C(=O)NCc1ccc(CN)cc1)C[C@@H]3O[C@H]1C[C@H]2[C@H](O[C@@H]3[C@@H](OC)OCCN32)[C@H](C)O1 [Compound 41] | 0.42
COc1cccc2c1C(=O)c1c(O)c3c(c(O)c1C2=O)C[C@@](O)(C(=O)N[C@H]1CCC[C@@H]1N)C[C@@H]3O[C@H]1C[C@H]2[C@H](O[C@@H]3[C@@H](OC)OCCN32)[C@H](C)O1 [Compound 80] | 14.1
COc1cccc2c1C(=O)c1c(O)c3c(c(O)c1C2=O)C[C@@](O)(C(=O)N1CCC2(CNC2)C1)C[C@@H]3O[C@H]1C[C@H]2[C@H](O[C@@H]3[C@@H](OC)OCCN32)[C@H](C)O1 [Compound 29] | 90
COc1cccc2c1C(=O)c1c(O)c3c(c(O)c1C2=O)C[C@@](O)(C(=O)NCC(C)(C)N)C[C@@H]3O[C@H]1C[C@H]2[C@H](O[C@@H]3[C@@H](OC)OCCN32)[C@H](C)O1 [Compound 61, (2S,4S)—N-(2-amino-2-methylpropyl)-2,5,12-trihydroxy-7-methoxy-4-(((1S,3R,4aS,9S,9aR,10aS)-9-methoxy-1-methyloctahydro-1H-pyrano[4′,3′:4,5]oxazolo[2,3-c][1,4]oxazin-3-yl)oxy)-6,11-dioxo-1,2,3,4,6,11-hexahydrotetracene-2-carboxamide] | 8.7
COc1cccc2c1C(=O)c1c(O)c3c(c(O)c1C2=O)C[C@@](O)(C(=O)NCc1nc(N)cn1C)C[C@@H]3O[C@H]1C[C@H]2[C@H](O[C@@H]3[C@@H](OC)OCCN32)[C@H](C)O1 [Compound 82] | 0.26
COc1cccc2c1C(=O)c1c(O)c3c(c(O)c1C2=O)C[C@@](O)(C(=O)N1CC2(CNC2)C1)C[C@@H]3O[C@H]1C[C@H]2[C@H](O[C@@H]3[C@@H](OC)OCCN32)[C@H](C)O1 [Compound 30] | 14
COc1cccc2c1C(=O)c1c(O)c3c(c(O)c1C2=O)C[C@@](O)(C(=O)NCCCN(C)CCCN)C[C@@H]3O[C@H]1C[C@H]2[C@H](O[C@@H]3[C@@H](OC)OCCN32)[C@H](C)O1 [Compound 14] | 11
COc1cccc2c1C(=O)c1c(O)c3c(c(O)c1C2=O)C[C@@](O)(C(=O)NCCCNCCCNC(=O)CN)C[C@@H]3O[C@H]1C[C@H]2[C@H](O[C@@H]3[C@@H](OC)OCCN32)[C@H](C)O1 [Compound 8] | 48
COc1cccc2c1C(=O)c1c(O)c3c(c(O)c1C2=O)C[C@@](O)(C(=O)N[C@H]1C[C@@H](N)C1)C[C@@H]3O[C@H]1C[C@H]2[C@H](O[C@@H]3[C@@H](OC)OCCN32)[C@H](C)O1 [Compound 53] | 7.7
COc1cccc2c1C(=O)c1c(O)c3c(c(O)c1C2=O)C[C@@](O)(C(=O)NCCNC(=O)[C@H](C)N)C[C@@H]3O[C@H]1C[C@H]2[C@H](O[C@@H]3[C@@H](OC)OCCN32)[C@H](C)O1 [Compound 7] | 13
COc1cccc2c1C(=O)c1c(O)c3c(c(O)c1C2=O)C[C@@](O)(C(=O)NCC1(N)CC1)C[C@@H]3O[C@H]1C[C@H]2[C@H](O[C@@H]3[C@@H](OC)OCCN32)[C@H](C)O1 [Compound 64] | 0.49
COc1cccc2c1C(=O)c1c(O)c3c(c(O)c1C2=O)C[C@@](O)(C(=O)NCCN(C)C(=O)C1CCNC1)C[C@@H]3O[C@H]1C[C@H]2[C@H](O[C@@H]3[C@@H](OC)OCCN32)[C@H](C)O1 (single isomer, unassigned) [Compound 49] | 31
COc1cccc2c1C(=O)c1c(O)c3c(c(O)c1C2=O)C[C@@](O)(C(=O)Nc1cc(N)n(C)n1)C[C@@H]3O[C@H]1C[C@H]2[C@H](O[C@@H]3[C@@H](OC)OCCN32)[C@H](C)O1 [Compound 81] | 0.4
COc1cccc2c1C(=O)c1c(O)c3c(c(O)c1C2=O)C[C@@](O)(C(=O)NC12CNCC1C2)C[C@@H]3O[C@H]1C[C@H]2[C@H](O[C@@H]3[C@@H](OC)OCCN32)[C@H](C)O1 (stereo partly drawn) [Compound 57] | 1.6
COc1cccc2c1C(=O)c1c(O)c3c(c(O)c1C2=O)C[C@@](O)(C(=O)NC[C@H]1CNC(=O)C1)C[C@@H]3O[C@H]1C[C@H]2[C@H](O[C@@H]3[C@@H](OC)OCCN32)[C@H](C)O1 [Compound 85] | 0.4
COc1cccc2c1C(=O)c1c(O)c3c(c(O)c1C2=O)C[C@@](O)(C(=O)N1CC(CN2CC(N)C2)C1)C[C@@H]3O[C@H]1C[C@H]2[C@H](O[C@@H]3[C@@H](OC)OCCN32)[C@H](C)O1 [Compound 10] | 124
